According to the NIST ThermoML archive (doi:10.1021/je301347v):
Numbers after ± are expanded uncertainties.

Details: 101 kPa, Liquid, Voltage change across transformer (no electrode)

| Compound | electrical conductivity (293.15 K) [S/m] | electrical conductivity (303.15 K) [S/m] | electrical conductivity (313.15 K) [S/m] | electrical conductivity (323.15 K) [S/m] |
| --- | --- | --- | --- | --- |
| CCCC[n+]1cccc(C)c1.F[B-](F)(F)F [1-butyl-3-methylpyridinium tetrafluoroborate] | 0.155 ± 0.0016 | 0.281 ± 0.003 | 0.461 ± 0.005 | 0.704 ± 0.007 |
| CCCC[n+]1ccc(C)cc1.F[B-](F)(F)F [1-butyl-4-methylpyridinium tetrafluoroborate] | 0.1318 ± 0.0013 | 0.254 ± 0.003 | 0.439 ± 0.004 | 0.687 ± 0.007 |
| CCCC[n+]1ccccc1.F[B-](F)(F)F [1-butylpyridinium tetrafluoroborate] | 0.181 ± 0.0036 | 0.321 ± 0.006 | 0.519 ± 0.01 | 0.785 ± 0.016 |
